Consider two compounds from US9988355B2, “Form A of mesylate for nicotinamide derivatives and preparation method and application thereof” (SHANGHAI SUNTRONG BIOTECHNOLOGY CO., LTD., priority 2014, dated 2018).

Holding throughout (assay type): physicochemical
The nature of data set [1]: Hygroscopicity determination by TGA after storage at room temperature, humidity 40%. As to the method: Embodiment 11. Hygroscopicity Determination of the Contrast Needles Shape Solid of Nicotinamide Derivatives Mesylate
The obtained compound referred in a Chinese patent CN101676267 was 180.2 g of white needle-like crystals (0.365 mol) with the molecular weight being 493.5. It can thus be seen that the contrast needles shape solid of nicotinamide derivatives mesylate was anhydrate. The white needles of nicotinamide derivatives mesylate were prepared according to the method of […], and a DSC-TGA pattern of the needles as shown in FIG. 2 was obtained. Wherein, the testing conditions of differential scanning calorimetry (DSC) were 10° C./min with range of 30-300° C., and TGA testing conditions were 10° C./min from room temperature to 350° C. A proper amount of the needle samples of nicotinamide derivatives mesylate were placed at the room temperature under the humidity condition of 40%, and TGA detection was conducted on the solid respectively at the time intervals of 24 hours, 48 hours and 72 hours.

The nature of data set [2]: Solubility comparison of different crystal forms in water and ethanol. The source says: Embodiment 15. Solubility Comparison of Different Crystal Forms
The form A of mesylate for niacinamide derivatives prepared according to the method of the embodiment 4 and the needle solid of nicotinamide derivatives mesylate prepared according to the method of the embodiment 10 were respectively dissolved in water and ethanol, and solubility results were shown in Table 1.

Data set [3] is described as follows: Stability comparison of different crystal forms determined by HPLC, 6 months. The procedure: Embodiment 16. Stability Comparison of Different Crystal Forms Determined by HPLC
The form A of mesylate for niacinamide derivatives prepared according to the method of the embodiment 4 and the mesylate needles of nicotinamide derivatives prepared according to the method of the embodiment 10 were respectively put in the environment with light, high humidity (relative humidity (RH) is 90%), room temperature and high temperature (60° C.) for 6 months, the contents of related substances of the sample were determined by adopting HPLC, and examination results were shown in Table 2. HPLC testing conditions: chromatographic column Venusil MP-C18 (4.6 mm×250 mm, 5 μm, 100 Å); Mobile phase A: 0.1% acetum, B: acetonitrile, gradient conditions (0 min, 95% A; 20 min, 5% A; 25 min, 5% A; 30 min, 95% A); Detection wavelength 254 nm; Flowing speed 1 ml/min; Column temperature 30° C.; Sample amount 20 μl.

Data set [4] is described as follows: Stability comparison of different crystal forms by solid-state representation means (XRPD), 6 months. The procedure:
Embodiment 17. Stability Comparison of Different Crystal Forms Determined by Adopting Solid-State Representation Means
The form A of mesylate for niacinamide derivatives prepared according to the method of the embodiment 4 and the needles solid of nicotinamide derivatives mesylate prepared according to the method of the embodiment 10 were respectively put in the environment with light, high humidity (relative humidity (RH) is 90%), room temperature and high temperature (60° C.) for 6 months, XRPD determination was performed by adopting a solid-state representation means, and examination results were shown in Table 3.

The nature of data set [5]: High-temperature, high-humidity and light stability of the crystal form, XRPD after 5 days. The procedure:
Embodiment 14. Determination of High-Temperature Stability, High-Humidity Stability and Light Stability of the Mesylate Crystal Form A of Nicotinamide Derivatives of the Present Invention
The mesylate crystal form A of nicotinamide derivatives prepared according to the method of the embodiment 4 was tested.
(1) High-Temperature Stability
(2) High-Humidity Stability

Structures can show the parent of a compound that is named as a salt.

In the case of `N#CC1(c2ccc(NC(=O)c3cccnc3NCc3ccncc3)cc2)CCCC1` [Contrast needles, N-[4-(1-cyanocyclopentyl)phenyl]-2-(4-pyridylmethyl) amidogen-3-pyridineethanamine], the “Hygroscopicity (conclusion in words)” value in data set [1] (24-72 hours) is “a certain hygroscopicity”. Moreover, the “TGA weight loss after storage under humidity” value in data set [1] (24 hours) is recorded as 3.311%; in data set [1] (48 hours) it was 3.191%; in data set [1] (72 hours), 3.332%. For the same compound, the Water solubility entry in data set [2] is reported as “Insoluble”. Also, the “Contents of related substances of the sample by HPLC” value in data set [3] (60° C. for 6 months) is given as 98.2%; in data set [3] (Illuminating for 6 months) it was 99.4%; in data set [3] (RH90% for 6 months), 98.8%; in data set [3] (Room temperature for 6 months), 99.2%. The “Crystal form after storage (XRPD)” value in data set [4] (60° C. for 6 months) and in data set [4] (Illuminating for 6 months) was “Unchanged” in each case.

For `N#CC1(c2ccc(NC(=O)c3cccnc3NCc3ccncc3)cc2)CCCC1` [The form A of mesylate for niacinamide derivatives of the pr] [N-[4-(1-cyanocyclopentyl)phenyl]-2-(4-pyridylmethyl) amidogen-3-pyridineethanamine], the “High-humidity stability (XRPD compared with FIG. 1)” value in data set [5] (airtight container, humidity 92.5%) is given as “good stability in a high-humidity environment”. Further, the “High-temperature stability (XRPD compared with FIG. 1)” value in data set [5] (airtight drying oven of 60° C.) is on record as “good high-temperature stability”. In data set [5] (transparent container, light 4500 lux), the “Light stability (XRPD compared with FIG. 1)” value is on record as “good light stability”. Moreover, the Water solubility entry in data set [2] is recorded as “Insoluble”. The “Contents of related substances of the sample by HPLC” value in data set [3] (60° C. for 6 months) is given as 98.1%; in data set [3] (Illuminating for 6 months), 99.6%; in data set [3] (RH90% for 6 months) it was 98.5%; in data set [3] (Room temperature for 6 months) it was 99.4%. Also, the “Crystal form after storage (XRPD)” value in data set [4] (60° C. for 6 months), in data set [4] (Illuminating for 6 months), in data set [4] (RH90% for 6 months) and in data set [4] (Room temperature for 6 months) was “Unchanged” each time.
